Experimental data from patent US20260345582A1, “PRODRUG FOR ANTI-AGING RELATED DISEASES AND USE METHOD THEREOF” (Beijing SunCell Bio-Medical Co., Ltd., priority 2022, published 2026).

Columns and labels:
[1] = test system: A549 cells (human non-small cell lung cancer cell), induced senescent with Cisplatin; experiment: in vitro killing of induced senescent A549 cells (CCK-8); format: cell-based
From the text: A. The killing results of some selected compounds in the in vitro compound library screening on the induced senescent A549 cell model. Wherein, MZ-1, dBET6, ARV-825, I-BET726, I-BET151, and INCB057643 are all BET inhibitors; A1331852 and A1155463 are novel Bcl-xL inhibitors; Dasatinib, Quercetin, Fisetin, Curcumin are the familiar active drugs or natural products.
B. Comparison of the killing effects of three Bcl-xL inhibitors on the induced senescent A549 cell model. A549 represents the normal uninduced A549 cell group; and A549-CDDP represents the senescent A549 cell group induced with Cisplatin (CDDP) in vitro.
(§1) Induction of the Cellular Senescence

[2] = test system: mouse model of Bleomycin-induced pulmonary fibrosis; experiment: Masson staining of lungs (degree of fibrosis), Bleomycin-induced pulmonary fibrosis; format: in vivo, C57 mice; conditions: of 6 animals; A13 2 mg/kg, A13bGa1 5 mg/kg
Description: A. Modelling of a mouse model of Bleomycin-induced pulmonary fibrosis, and the schematic diagram of treatment. Mice were modelled with Bleomycin administered via tracheal instillation on day 0, and the treatment with intraperitoneal injection of the drug was started on day 4. The drug was administered for 3 consecutive days per week, followed by a 4-day withdrawal, for 4 weeks.
D. Representative results of HE and Masson staining of the pathological sections of lungs taken from different groups of mice after execution. Normal represents the saline tracheal instillation modelling control group; Vehicle represents the vehicle administration control group; A13bGa1 represents the prodrug treatment group; A13 represents the A1331852 treatment group. Scale bar: 500 μm.
All drugs were mixed in 85% physiological saline, 5% DMSO (Sigma, D8418) and 10% Solutol HS 15 (Sigma, 42966), and administered to mice by intraperitoneal (i.p.) injection. To treat the bleomycin-injured young mice, A13 (2 mg/kg), A13bGa1 (5 mg/kg), or an empty vehicle control was administered three consecutive days per week for four weeks. A1331852 (abbreviated as A13) was purchased from MCE.
Bleomycin-Induced Pulmonary Fibrosis
Bleomycin was purchased from Selleck. As previously reported (Bivas-Benita et al., Eur J Pharm Biopharm 61, 214-218 (2005)), a transtracheal injection of bleomycin (2 mg/kg) was performed to the young male C57 mice (8-10 weeks old) to induce lung fibrosis. Drug treatment was initiated four days after modelling, and the drug was administered three consecutive days per week for four consecutive weeks, after which the mice were executed for material collection.
Masson trichrome stain kit (Solarbio, G1340) was used to detect fibrosis in the lung tissue. The formalin-fixed, and paraffin-embedded lung sections were dewaxed with xylene, and then rehydrated with 100% alcohol, 95% alcohol and distilled water. The sections were then stained according to the manufacturer's instructions. Afterwards, the sections were rapidly dehydrated with 95% alcohol and 100% alcohol, cleaned with xylene and covered with the coverslips. Images were acquired using a bright-field optical microscope (10× eyepiece) (OLYMPUS, BX43), and the degree of fibrosis of the lung tissue was graded according to the intensity of staining (weakly positive, moderately positive, moderately strong positive, and very strong positive).

[3] = test system: HEF cells (primary human embryonic skin fibroblast), induced senescent with Etoposide; experiment: in vitro killing of induced senescent HEF cells (CCK-8); format: cell-based
From the text: C. Comparison of the killing effects of three Bcl-xL inhibitors on the induced senescent HEF cell model. HEF represents the isolated early generation uninduced HEF cell group; and HEF-ETO represents the senescent HEF cell group induced with Etoposide (ETO) in vitro.
as §1

[4] = test system: senescent cells (HEF, HELF, A549, MRC5, BJ, HUVEC); experiment: in vitro killing of senescent cells, multiple cell models (CCK-8); format: cell-based, human; conditions: FIG. 3B-3G
From the text: as §1

[5] = test system: MRC5 cells (human embryonic lung fibroblast cell line); experiment: in vitro killing of induced senescent MRC5 cells (CCK-8); format: cell-based; conditions: lung-derived, FIG. 3G
From the text: as §1

[6] = liver microsomal metabolic stability, rat
Description: Hepatic Microsomal Metabolic Stability
A13bGa1 was co-incubated with the mouse, rat, canine, monkey and human […] and the incubation medium at a final drug concentration of 1 μM in the incubation system for 60 minutes. Samples were taken and analyzed at time points 0, 15, 30, 45 and 60 minutes during the incubation. The reaction was terminated by adding an amount of acetonitrile solution containing the internal standard. […] The residual percentage, half-life, intrinsic clearance, amplified clearance, hepatic clearance and hepatic extraction ratio were determined. The entire experiment was performed in triplicate. All data calculations were performed by Microsoft Excel software. Peak areas were detected by extracting the ionic spectrum. The in vitro half-life (t1/2) of the parent compound was detected by fitting the natural logarithm of the percentage elimination of the parent compound linearly to time.
The in vitro intrinsic clearance (in μL/min/mg protein) was calculated using the following equation: in vitro CLint=kV/N
The amplified clearance (in mL/min/kg) was calculated using the following equation: Amplified CLint=kV/N×the amplification factor
The hepatic clearance (in mL/min/kg) was calculated using the following equation: The predicted hepatic CLH=(Q×Fu/RB×the amplified CLint)/(Q+Fu/RB×the amplified CLint) • V=the incubation volume per well (0.2 mL); • N=the total amount of protein (mg) • Q=the hepatic blood flow (mL/min/kg) • Fu=the plasma free rate (assumed to be 1) • RB=the whole blood partition coefficient (assumed to be 1)
The hepatic uptake rate was calculated using the following equation:
The hepatic extraction ratio (ER)=(the predicted hepatic CLH)/Q

[7] = biological target: E. coli-derived β-galactosidase (Escherichia coli, UniProt P00722); experiment: in vitro enzymatic hydrolysis of the prodrug by β-galactosidase (HPLC); format: biochemical; conditions: role: substrate, 10 μM, β-galactosidase 10 U/μM, PBS 0.01 M pH 7.3, 37 °C, 6 hours, FIG. 2C
Chain of E. coli-derived β-galactosidase (P00722 whole entry): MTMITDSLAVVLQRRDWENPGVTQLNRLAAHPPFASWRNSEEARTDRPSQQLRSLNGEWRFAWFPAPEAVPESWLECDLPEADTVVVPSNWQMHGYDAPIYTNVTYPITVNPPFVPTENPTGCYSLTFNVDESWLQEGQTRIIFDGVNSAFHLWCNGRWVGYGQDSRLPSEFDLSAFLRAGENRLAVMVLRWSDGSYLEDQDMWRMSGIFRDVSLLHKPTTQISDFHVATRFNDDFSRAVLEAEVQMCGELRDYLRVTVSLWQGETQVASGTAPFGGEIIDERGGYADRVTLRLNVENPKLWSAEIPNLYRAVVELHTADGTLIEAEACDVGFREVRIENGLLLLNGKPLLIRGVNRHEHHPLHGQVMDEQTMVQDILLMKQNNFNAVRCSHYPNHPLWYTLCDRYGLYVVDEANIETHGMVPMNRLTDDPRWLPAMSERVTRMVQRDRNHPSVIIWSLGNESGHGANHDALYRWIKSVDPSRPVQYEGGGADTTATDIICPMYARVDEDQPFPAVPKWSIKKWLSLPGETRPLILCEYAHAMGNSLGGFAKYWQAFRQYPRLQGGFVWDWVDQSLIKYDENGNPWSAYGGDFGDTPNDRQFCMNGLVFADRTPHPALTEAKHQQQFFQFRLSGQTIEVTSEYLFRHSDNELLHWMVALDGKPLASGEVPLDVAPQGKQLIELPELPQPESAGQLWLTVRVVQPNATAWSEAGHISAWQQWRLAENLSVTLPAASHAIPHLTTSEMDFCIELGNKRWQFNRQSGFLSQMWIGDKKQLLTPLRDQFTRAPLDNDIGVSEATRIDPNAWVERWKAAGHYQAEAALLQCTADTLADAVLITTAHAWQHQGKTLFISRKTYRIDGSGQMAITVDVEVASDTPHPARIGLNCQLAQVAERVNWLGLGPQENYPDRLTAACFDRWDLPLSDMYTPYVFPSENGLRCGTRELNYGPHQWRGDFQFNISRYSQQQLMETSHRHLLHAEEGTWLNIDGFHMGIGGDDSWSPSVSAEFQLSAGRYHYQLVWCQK
Description: Study of the Hydrolysis Reaction of A13bG
The in vitro enzymatic hydrolysis reaction was carried out using E. coli-derived β-galactosidase (Sigma) in PBS solution (0.01 M, pH 7.3) at a reaction concentration of 10 μM for both A13 and A13bG, and for 6 hours at 37 °C after the addition of β-galactosidase (10 U/μM). The hydrolysis reaction was monitored by the high performance liquid chromatography (HPLC). The compound A13 and the prodrug A13bG without enzyme reaction were analyzed by HPLC at the same conditions as the references. The chromatographic column model: Waters Acquity BEH C4, the conditions: 0.04 ml/min, (water (0.1% acetic acid)): the acetonitrile gradient elution: 98:2 1 min, 5:95 13 min, 5:95 18 min, 2:98 20 min.

| Structure (SMILES) | selective killing effect on the senescent cells ([1]; A549-CDDP vs A549, FIG. 1B) | senescent cell killing activity and selectivity, compound screening ([1]; induced senescent A549 cell model, FIG. 1A) | degree of fibrosis, Masson staining: Moderately strong positive (+++) [2] | degree of fibrosis, Masson staining: extremely strong positive (++++) [2] | degree of fibrosis, Masson staining: moderately positive (++) [2] | degree of fibrosis, Masson staining: not positive (−) [2] | degree of fibrosis, Masson staining: weakly positive (+) [2] | selective killing effect on the senescent cells ([3]; HEF-ETO vs HEF, FIG. 1C) | overall killing activity on the senescent cells compared with the parent compound A13 [4] | killing of the senescent cells, efficiency and selectivity ([1]; A549 cells, lung-derived, FIG. 3E) | killing of the senescent cells, efficiency and selectivity [5] | The hepatic extraction ratio (E) [6] | The intrinsic clearance in vitro Clint ([6]; 1 μM, 60 min) | The predicted intrinsic hepatic clearance Clint ([6]; Fu and RB assumed to be 1) | CLint scaled at 1 µM ([6]; microsomes) | half-life at 1 h, 1 µM ([6]; microsomes) | hydrolysis under the action of β-gal enzyme, release of the parent compound A13 [7] | killing of the senescent cells, efficiency and selectivity ([3]; HEF cells, human skin-derived fibroblasts, FIG. 3B) |
| --- | --- | --- | --- | --- | --- | --- | --- | --- | --- | --- | --- | --- | --- | --- | --- | --- | --- | --- |
| Cc1c(-c2ccc(N3CCc4cccc(C(=O)Nc5nc6ccccc6s5)c4C3)nc2C(=O)O)cnn1CC12CC3CC(CC(C3)C1)C2 [Compound A13, 3-[1-(adamantan-1-ylmethyl)-5-methylpyrazol-4-yl]-6-{8-[(1,3-benzothiazol-2-yl)carbamoyl]-3,4-dihydro-1H-isoquinolin-2-yl}pyridine-2-carboxylic acid] | selective killing effect on the senescent cells | good senescent cell killing activity and selectivity in vitro | 1 number of animals | 2 number of animals | 1 number of animals | 0 number of animals | 2 number of animals | selective killing effect on the senescent cells |  |  |  |  |  |  |  |  |  |  |
| Cc1c(-c2ccc(N3CCc4cccc(C(=O)Nc5nc6ccccc6s5)c4C3)nc2C(=O)OCc2ccc(O[C@@H]3O[C@H](CO)[C@H](O)[C@H](O)[C@H]3O)c([N+](=O)[O-])c2)cnn1CC12CC3CC(CC(C3)C1)C2 [Compound A13bGa1] |  |  | 0 number of animals | 0 number of animals | 1 number of animals | 3 number of animals | 2 number of animals |  | somewhat reduced compared with that of the parent compound A13 | highly efficient and selective in killing the senescent cells | highly efficient and selective in killing the senescent cells | 0.34 | 15.81 μL/min/mg protein | 1.123 L/h/kg | 1.7 L/h/kg | 1.46 h | hydrolysed under the action of β-gal enzyme to release the parent compound A13 | highly efficient and selective in killing the senescent cells |
